# Results reported in PubChem BioAssay AID206 (DTP/NCI, 2004).
# Values joined by “and” are separate entries in the source; they are usually repeats but may differ in a detail not shown here. Identical values can stand only once. Results filed as inconclusive are left out. Starred links: 1 amine or outer side, 2 acyl side, 3 side chain; linkers in the order of their positions; H or OH if unused. Positions of bridges follow the written chain, without caps; N, C: chain ends. Non-standard residues stand in square brackets, D forms with d. Residues, ends and D or L forms follow the SMILES beside them. Chains are numbered I, II in the order given. Actinocin(1to9) = Cc1c2oc3c(C)ccc(C(=O)[*:2])c3nc-2c(C(=O)[*:1])c(N)c1=O; NMeV = CN[CH](C(=O)O)C(C)C; Aze = O=C(O)[CH]1CCN1; Sar = CNCC(=O)O
# Tested on: nude mice, HT29 intrarenal xenograft, tumor weight T/C
# Assay: NCI In Vivo Anticancer Drug Screen. Data for tumor model HT29;CX-1 Human Adenocarcinoma (MER+) (intrarenal inoculation) in NU/NU Swiss (nude) mice
# Settings: endpoint: mean tumor weight change, higher = larger tumour
# Outline: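 Readout: treated/vehicle-control ratio of the measured endpoint (tumor size or survival) in transplanted-tumor mice.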
# [1] = dose: 150.0 mg/kg/injection, schedule: Q04DX004 (sc), vehicle: Klucel (hydroxypropylcellulose) (HPC)
# [2] = dose: 300.0 mg/kg/injection, schedule: Q04DX004 (sc), vehicle: Klucel (hydroxypropylcellulose) (HPC)
# [3] = dose: 600.0 mg/kg/injection, schedule: Q04DX004 (sc), vehicle: Klucel (hydroxypropylcellulose) (HPC)
# [4] = dose: 1200.0 mg/kg/injection, schedule: Q04DX004 (sc), vehicle: Klucel (hydroxypropylcellulose) (HPC)
# [5] = dose: 50.0 mg/kg/injection, schedule: Q04DX004 (sc), vehicle: saline with Tween-80
# [6] = dose: 100.0 mg/kg/injection, schedule: Q04DX004 (sc), vehicle: saline with Tween-80
# [7] = dose: 100.0 mg/kg/injection, schedule: Q01DX010 (sc), vehicle: Klucel (hydroxypropylcellulose) (HPC)
# [8] = dose: 200.0 mg/kg/injection, schedule: Q01DX010 (sc), vehicle: Klucel (hydroxypropylcellulose) (HPC)
# [9] = dose: 150.0 mg/kg/injection, schedule: Q04DX004 (sc), vehicle: saline with Tween-80
# [10] = dose: 300.0 mg/kg/injection, schedule: Q04DX004 (sc), vehicle: saline with Tween-80
# [11] = dose: 12.5 mg/kg/injection, schedule: Q01DX010 (sc), vehicle: saline
compound,measurement,setting,value
OCCOCC(F)(F)F,T/C,"dose: 300.0 mg/kg/injection, schedule: Q04DX004 (sc), vehicle: saline",67 % of control
same,T/C,"dose: 600.0 mg/kg/injection, schedule: Q04DX004 (sc), vehicle: saline",91 % of control
same,T/C,"dose: 1200.0 mg/kg/injection, schedule: Q04DX004 (sc), vehicle: saline",100 % of control
same,T/C,"dose: 2400.0 mg/kg/injection, schedule: Q04DX004 (sc), vehicle: saline",58 % of control
CC1=NNC(=O)C1CCO (stereo not drawn),T/C,"dose: 200.0 mg/kg/injection, schedule: Q04DX004 (sc), vehicle: Klucel (hydroxypropylcellulose) (HPC)",66 % of control
same,T/C,"dose: 400.0 mg/kg/injection, schedule: Q04DX004 (sc), vehicle: Klucel (hydroxypropylcellulose) (HPC)",44 % of control
same,T/C,"dose: 800.0 mg/kg/injection, schedule: Q04DX004 (sc), vehicle: Klucel (hydroxypropylcellulose) (HPC)",99 % of control
same,T/C,"dose: 1600.0 mg/kg/injection, schedule: Q04DX004 (sc), vehicle: Klucel (hydroxypropylcellulose) (HPC)",63 % of control
Cc1nn(CCO)c(C)c1N=[N+]([O-])c1c(C)nn(CCO)c1C,T/C,"dose: 75.0 mg/kg/injection, schedule: Q04DX004 (sc), vehicle: Klucel (hydroxypropylcellulose) (HPC)",68 % of control
same,T/C,[1],70 % of control
same,T/C,[2],44 % of control
same,T/C,[3],53 % of control
same,T/C,[4],102 % of control
N[C@H](C(=O)O)[C@@H]1CC(Cl)=NO1,T/C,"dose: 4.0 mg/kg/injection, schedule: Q01DX010 (sc), vehicle: saline",21 % of control
same,T/C,"dose: 8.0 mg/kg/injection, schedule: Q01DX010 (sc), vehicle: saline",35 % of control
BrC[P+](CBr)(CBr)CBr,T/C,[5],86 % of control
same,T/C,[6],57 % of control
same,T/C,"dose: 200.0 mg/kg/injection, schedule: Q04DX004 (sc), vehicle: saline with Tween-80",82 % of control
same,T/C,"dose: 400.0 mg/kg/injection, schedule: Q04DX004 (sc), vehicle: saline with Tween-80",103 % of control
CCO/C=C1\SC(=S)N(c2ccccc2C)C1=O,T/C,"dose: 100.0 mg/kg/injection, schedule: Q01DX010 (sc), vehicle: saline with Tween-80",80 % of control
same,T/C,"dose: 200.0 mg/kg/injection, schedule: Q01DX010 (sc), vehicle: saline with Tween-80",102 % of control
same,T/C,"dose: 400.0 mg/kg/injection, schedule: Q01DX010 (sc), vehicle: saline with Tween-80",177 % of control
same,T/C,"dose: 800.0 mg/kg/injection, schedule: Q01DX010 (sc), vehicle: saline with Tween-80",107 % of control
COc1ccc(S(=O)(=O)N/N=C/C(=O)O)cc1,T/C,"dose: 25.0 mg/kg/injection, schedule: Q04DX004 (sc), vehicle: saline with Tween-80",94 % of control
same,T/C,[5],90 % of control and 102 % of control
same,T/C,[6],59 % of control and 82 % of control
CC(=O)OCc1cc(=O)n(C)c2c3c4c(cc12)c(C)cc(=O)n4CO3,T/C,"dose: 25.0 mg/kg/injection, schedule: Q01DX010 (sc), vehicle: Klucel (hydroxypropylcellulose) (HPC)",99 % of control
same,T/C,"dose: 50.0 mg/kg/injection, schedule: Q01DX010 (sc), vehicle: Klucel (hydroxypropylcellulose) (HPC)",105 % of control
same,T/C,[7],59 % of control
same,T/C,[8],34 % of control
CC(=O)OCC1(C)NC(=O)c2ccccc2O1 (stereo not drawn),T/C,[9],78 % of control
same,T/C,[10],79 % of control
same,T/C,"dose: 600.0 mg/kg/injection, schedule: Q04DX004 (sc), vehicle: saline with Tween-80",100 % of control
same,T/C,"dose: 1200.0 mg/kg/injection, schedule: Q04DX004 (sc), vehicle: saline with Tween-80",52 % of control
CC(=S)NC(O)C(=O)c1ccccc1 (stereo not drawn),T/C,[10],116 % of control
Nc1ccccc1N,T/C,[7],206 % of control
same,T/C,[8],115 % of control
COc1cccc2c1C(=O)c1c(O)c3c(c(O)c1C2=O)C[C@@](O)(C(=O)COC(=O)c1cccnc1)C[C@@H]3OC1CC(N)C(O)C(C)O1 (stereo partly drawn),T/C,"dose: 6.0 mg/kg/injection, schedule: Q04DX004 (sc), vehicle: saline",44 % of control and 65 % of control
"Cc1c2oc3c(C)ccc(C(=O)NC4C(=O)NC(C(C)C)C(=O)N5CCCC5C(=O)N(C)CC(=O)N(C)C(C(C)C)C(=O)OC4C)c3nc-2c(C(=O)NC2C(=O)NC(C(C)C)C(=O)N3CCC3C(=O)N(C)CC(=O)N(C)C(C(C)C)C(=O)OC2C)c(N)c1=O (stereo not drawn) (I: TV[Aze][Sar][NMeV] / II: TVP[Sar][NMeV]; ester I:1-I:C, II:1-II:C; linker I:N-II:N via Actinocin(1to9); configuration not given here)",T/C,"dose: 0.5 mg/kg/injection, schedule: Q04DX004 (sc), vehicle: saline + alcohol",59 % of control
same,T/C,"dose: 1.0 mg/kg/injection, schedule: Q04DX004 (sc), vehicle: saline + alcohol",30 % of control
Cc1cc2nc3[nH]c4ccccc4c3nc2cc1C,T/C,"dose: 100.0 mg/kg/injection, schedule: Q01DX010 (sc), vehicle: saline",46 % of control
same,T/C,"dose: 200.0 mg/kg/injection, schedule: Q01DX010 (sc), vehicle: saline",98 % of control
same,T/C,"dose: 400.0 mg/kg/injection, schedule: Q01DX010 (sc), vehicle: saline",82 % of control
same,T/C,"dose: 800.0 mg/kg/injection, schedule: Q01DX010 (sc), vehicle: saline",84 % of control
COc1c(O)c2c(c3cc(C(=O)N4CCc5c4c(O)c(OC)c4[nH]c(C(=O)N6CC7CC78C6=CC(=O)c6[nH]cc(C)c68)cc54)[nH]c13)CCN2C(N)=O (stereo not drawn),T/C,"dose: 6.25 micrograms/kg/injection, schedule: Q01DX010 (sc), vehicle: DMSO",96 % of control
same,T/C,"dose: 12.5 micrograms/kg/injection, schedule: Q01DX010 (sc), vehicle: DMSO",108 % of control
same,T/C,"dose: 25.0 micrograms/kg/injection, schedule: Q01DX010 (sc), vehicle: DMSO",65 % of control
same,T/C,"dose: 50.0 micrograms/kg/injection, schedule: Q01DX010 (sc), vehicle: DMSO",89 % of control
CC(=O)CC(C)=O.CC(=O)CC(C)=O.O=N[O-].O=N[O-].[Co],T/C,"dose: 75.0 mg/kg/injection, schedule: Q04DX004 (sc), vehicle: saline with Tween-80",52 % of control
same,T/C,[9],92 % of control
same,T/C,[10],48 % of control
OCCN1CCN(CC/C=C2/c3ccccc3Sc3ccc(Cl)cc32)CC1,T/C,"dose: 25.0 mg/kg/injection, schedule: Q04DX004 (sc), vehicle: saline",160 % of control
same,T/C,"dose: 50.0 mg/kg/injection, schedule: Q04DX004 (sc), vehicle: saline",87 % of control
same,T/C,"dose: 100.0 mg/kg/injection, schedule: Q04DX004 (sc), vehicle: saline",82 % of control
same,T/C,"dose: 200.0 mg/kg/injection, schedule: Q04DX004 (sc), vehicle: saline",40 % of control
CCC(C(=O)O)C(=O)O.[NH2-].[NH2-].[Pt+2],T/C,"dose: 75.0 mg/kg/injection, schedule: Q04DX004 (sc), vehicle: saline",92 % of control
same,T/C,"dose: 150.0 mg/kg/injection, schedule: Q04DX004 (sc), vehicle: saline",50 % of control
CC(C)=CCNc1ncnc2c1ncn2C1OC(CO)C(O)C1O (stereo not drawn),T/C,"dose: 400.0 mg/kg/injection, schedule: Q04DX004 (sc), vehicle: suspension in saline",62 % of control
Nc1nncs1,T/C,"dose: 3.13 mg/kg/injection, schedule: Q01DX010 (sc), vehicle: saline",97 % of control
same,T/C,[11],84 % of control
COc1ccc2ccccc2c1C1NC(=O)c2ccccc2N1 (stereo not drawn),T/C,[1],114 % of control
same,T/C,[2],115 % of control
same,T/C,[3],207 % of control
same,T/C,[4],201 % of control
O=NN(CCF)C(=O)NC1CCCCC1,T/C,"dose: 6.25 mg/kg/injection, schedule: Q04DX004 (sc), vehicle: Klucel (hydroxypropylcellulose) (HPC)",55 % of control
same,T/C,"dose: 12.5 mg/kg/injection, schedule: Q04DX004 (sc), vehicle: Klucel (hydroxypropylcellulose) (HPC)",30 % of control
same,T/C,"dose: 25.0 mg/kg/injection, schedule: Q04DX004 (sc), vehicle: Klucel (hydroxypropylcellulose) (HPC)",62 % of control
O=C1C=C(C2OC(CO)C(O)C2O)C(=O)N1 (stereo not drawn),T/C,"dose: 6.25 mg/kg/injection, schedule: Q01DX010 (sc), vehicle: saline",78 % of control
same,T/C,[11],78 % of control
CCCC(=O)O.CCCC(=O)O.CCCC(=O)O.CCCC(=O)O.[Rh].[Rh],T/C,"dose: 0.5 mg/kg/injection, schedule: Q04DX004 (sc), vehicle: suspension in saline",99 % of control
same,T/C,"dose: 1.0 mg/kg/injection, schedule: Q04DX004 (sc), vehicle: suspension in saline",75 % of control
same,T/C,"dose: 2.0 mg/kg/injection, schedule: Q04DX004 (sc), vehicle: suspension in saline",97 % of control
same,T/C,"dose: 4.0 mg/kg/injection, schedule: Q04DX004 (sc), vehicle: suspension in saline",155 % of control
